These results are taken from patent US6077841A, “5-heterocyclyl pyrazolo[4,3-d]pyrimidin-7-ones for the treatment of male erectile dysfunction” (Janssen Pharmaceutica, N.V., priority 1999, dated 2000).

One data set has as its target PDE V (Oryctolagus cuniculus, UniProt G1SX67). Kind of data set: Measurement of Inhibition of PDE V (cyclic nucleotide phosphodiesterase assay). The format is biochemical, rabbit. Particulars: for inhibition at 10 µM / inhibition at 20 µM: read-out: Activity Inhibition % at (conc. μM); for IC50: 1 μM cGMP or cAMP, pH 7.4, 30° C., 30 minutes, 10% DMSO, read-out: Activity IC50 (PDEV inhibitory activity).

In data set [1] the test system is erectile dysfunction. The note with it: cited from earlier work.
Data set [2] relates to erectile dysfunction. Particulars: cited from earlier work. This is another data set of the same source.

Structures are written as SMILES. Where two headings read alike, the source gives them in different places.

Take `CCCc1nn(C)c2c(=O)[nH]c(-c3sc(S(=O)(=O)N4CCN(C5CCCCC5)CC4)cc3OCC)nc12` [Compound 30]: the inhibition (in general, how much of the control response was suppressed) at 10 µM at PDE V was found to be 33%.
Take `CCCc1nn(C)c2c(=O)[nH]c(-c3sccc3OCC)nc12` [Compound 4, 5-(3-Ethoxythiophene-2-yl)-1-methyl-3-n-propyl-6,7-dihydro-1H-pyrazolo-[4,3-d]pyrimidin-7-one]: the IC50 (usually the midpoint of a concentration-inhibition curve) at PDE V came to 470 nM.
Consider `CCCc1nn(C)c2c(=O)[nH]c(-c3sc(S(=O)(=O)N4CCN(c5ncccn5)CC4)cc3O)nc12` [Compound 15], for which, on PDE V, the inhibition at 20 µM was found to be 13%.
Take `CCCc1nn(C)c2c(=O)[nH]c(-c3cc(S(=O)(=O)N4CCN(c5ncccn5)CC4)cn3C)nc12` [Compound 32]: at PDE V, the inhibition at 10 µM worked out at 31%.
Turning to `CCCc1nn(C)c2c(=O)[nH]c(-c3sc(S(=O)(=O)N4CCN(C)CC4)cc3OCC)nc12` [Compound 5, 5-[3-Ethoxy-5-(4-methylpiperazinylsulfonyl)-thiophene-2-yl]-1-methyl-3-n-propyl-6,7-dihydro-1H-pyrazolo-[4,3-d]pyrimidin-7-one], the IC50 on PDE V was 8000 nM.
On to `CCCc1nn(C)c2c(=O)[nH]c(-c3sc(S(=O)(=O)N4CCN(C/C=C/c5ccccc5)CC4)cc3OCC)nc12` [Compound 18], for which the inhibition at 10 µM on PDE V amounted to 44%.
Same read-out and setting: to `CCCc1nn(C)c2c(=O)[nH]c(-c3sc(S(=O)(=O)N4CCN(CC)CC4)cc3O)nc12` [Compound 25] belongs 26%.
Turning to `CCCc1nn(C)c2c(=O)[nH]c(-c3sc(S(=O)(=O)N4CCN(C(N)=O)CC4)cc3OCC)nc12` [Compound 20], at PDE V, the IC50 was found to be 950 nM.
The same measure, in the same setting: as for `CCCc1nn(C)c2c(=O)[nH]c(-c3sc(S(=O)(=O)N4CCN(c5ncccn5)CC4)cc3OCC)nc12` [Compound 12], the figure is 1200 nM; as for `CCCc1nn(C)c2c(=O)[nH]c(-c3sc(S(=O)(=O)N4CCC(N(C)C)CC4)cc3OCC)nc12` [Compound 29], 8300 nM.
Regarding `CCCc1nn(C)c2c(=O)[nH]c(-c3cc4c(S(=O)(=O)N5CCN(C)CC5)cc(S(=O)(=O)N5CCN(C)CC5)c(OCC)c4o3)nc12` [Compound 9], the inhibition at 20 µM on PDE V stood at 6%.
With `CCCc1nn(C)c2c(=O)[nH]c(-c3cccs3)nc12` [Compound 28], the IC50 at PDE V was 1600 nM.
In the case of `CCCc1nn(C)c2c(=O)[nH]c(-c3sc(S(=O)(=O)N4CCN(CC)CC4)cc3OCC)nc12` [Compound 24], the IC50 at PDE V is 2300 nM.
With `CCCc1nn(C)c2c(=O)[nH]c(-c3cc4cccc(OCC)c4o3)nc12` [Compound 7, 5-(7-Ethoxybenzofuran-2-yl)-1-methyl-3-n-propyl-6,7-dihydro-1H-pyrazolo-[4,3-d]pyrimidin-7-one], the IC50 at PDE V amounted to 910 nM.
With `CCCc1nn(C)c2c(=O)[nH]c(-c3sc(S(=O)(=O)N4CCN(C)CC4)cc3O)nc12` [Compound 6, 5-[3-hydroxy-5-(4-methylpiperazinylsulfonyl)-thiophene-2-yl]-1-methyl-3-n-propyl-6,7-dihydro-1H-pyrazolo-[4,3-d]pyrimidin-7-one], on PDE V, the IC50 was 10000 nM.
In the case of `CCCc1nn(C)c2c(=O)[nH]c(-c3sc(S(=O)(=O)N(C)CCN(C)C)cc3O)nc12` [Compound 27], the inhibition at 10 µM on PDE V amounted to 32%.
For the compound `Cc1ccc(N(CC2=NCCN2)c2cccc(O)c2)cc1` [phentolamine], the side effects entry with erectile dysfunction [1] (in vivo) was “priapism, fibrosis, penile pain and hematoma at the injection site”.
For the compound `CCCc1nn(C)c2c(=O)[nH]c(-c3sc(S(=O)(=O)N(C)C)cc3O)nc12` [Compound 23], the inhibition at 10 µM on PDE V was 30%.
As for `CCCc1nn(C)c2c(=O)[nH]c(-c3sc(S(=O)(=O)N4CCN(c5ccccc5)CC4)cc3O)nc12` [Compound 17], on PDE V, the inhibition at 10 µM was 28%.
For the compound `CCCc1nn(C)c2c(=O)[nH]c(-c3sc(S(=O)(=O)N(C)C)cc3OCC)nc12` [Compound 22], the IC50 at PDE V was found to be 1400 nM.
As for `CCCc1nn(C)c2c(=O)[nH]c(-c3sc(S(=O)(=O)N4CCN(c5ccccc5)CC4)cc3OCC)nc12` [Compound 16], at PDE V, the inhibition at 10 µM came out at 19%.
Consider `COc1ccc(Cc2nccc3cc(OC)c(OC)cc23)cc1OC` [papaverine], for which the side effects result in the data set on erectile dysfunction [1] (direct intracavernosal or intraurethral injection) is “priapism, fibrosis, penile pain and hematoma at the injection site”.
`CCCc1nn(C)c2c(=O)[nH]c(-c3sc(S(=O)(=O)N4CCN(C(N)=O)CC4)cc3O)nc12` [Compound 21]: the inhibition at 10 µM on PDE V is 30%.
The same measure, in the same setting: to `CCCc1nn(C)c2c(=O)[nH]c(-c3sc(S(=O)(=O)N4CCN(C/C=C/c5ccccc5)CC4)cc3O)nc12` [Compound 19] belongs 27%.
As to `CCCc1nn(C)c2c(=O)[nH]c(-c3sc(S(=O)(=O)N(C)CCN(C)C)cc3OCC)nc12` [Compound 26], the IC50 at PDE V was found to be 4900 nM.
On to `CCCc1nn(C)c2c(=O)[nH]c(-c3sc(S(=O)(=O)N4CCN(Cc5ccccc5)CC4)cc3O)nc12` [Compound 14], for which the inhibition at 20 µM on PDE V came out at 18%.
As to `CCCc1nn(C)c2c(=O)[nH]c(-c3sc(S(=O)(=O)N4CCN(Cc5ccccc5)CC4)cc3OCC)nc12` [Compound 13], the inhibition at 20 µM on PDE V is 46%.
In the case of `CCCc1nn(C)c2c(=O)[nH]c(-c3cccn3C)nc12` [Compound 10], the IC50 on PDE V came to 3500 nM.
For the compound `CCCCC[C@H](O)/C=C/[C@H]1[C@H](O)CC(=O)[C@@H]1CCCCCCC(=O)O` [alprostadil], in the data set on erectile dysfunction [1] (in vivo), the side effects result was “priapism, fibrosis, penile pain and hematoma at the injection site”.
For `CCCc1nn(C)c2c(=O)[nH]c(-c3cc4c(S(=O)(=O)N5CCN(C)CC5)ccc(OCC)c4o3)nc12` [Compound 8], the IC50 on PDE V stood at 5400 nM.
`CCCc1nn(C)c2c(=O)[nH]c(-c3cc(S(=O)(=O)N4CCN(C)CC4)ccc3OCC)nc12` [sildenafil, 5-[2-ethoxy-5-(4-methylpiperazin-1-ylsulphonyl)phenyl]-1-methyl-3-n-propyl-6,7-dihydro-1H-pyrazolo[4,3-d]pyrimidin-7-one]: the “improved sexual function in men who suffer from ED” value in the data set with erectile dysfunction [2] (ED of psychogenic or organic etiology, share of men) is recorded as “about 70%”. The “patients with improved erections” value in the data set with erectile dysfunction [2] (patients who had undergone a radical prostatectomy, versus 15% on placebo) was 43%. Moreover, in the data set with erectile dysfunction [2] (use of sildenafil), the undesirable side effects result was “headache, flushing and disrupted color vision”.
`CCCc1nn(C)c2c(=O)[nH]c(-c3sc(S(=O)(=O)N4CCN(C5CCCCC5)CC4)cc3O)nc12` [Compound 31]: the inhibition at 10 µM on PDE V amounted to 31%.
`CCCc1nn(C)c2c(=O)[nH]c(-c3cc(S(=O)(=O)N4CCN(C)CC4)cn3C)nc12` [Compound 11]: the inhibition at 10 µM on PDE V came out at 31%.
